Results on 18 molecules are retold here after patent US20260053834A1, “COVALENT MODIFIERS OF AKT1 AND USES THEREOF” (Terremoto Biosciences, Inc., priority 2023, published 2026).

The subject of assay [1] is LAPC4 prostate cancer cells, which express the AKT1 E17K allele. Put plainly: Antiproliferative effects in LAPC4 cells (CellTiter Glo, 72 h). The assay is classed as cell-based. The settings on record: Homo sapiens, LAPC4, 72 h, read-out: LAPC4 proliferation IC50: GeoMean IC50. Summed up:
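IC50 values come from Hill-equation fitting of luminescence (cellular ATP) after 72 h compound exposure. Treated wells held 1,000 cells each, with compound delivered as DMSO dilutions. Culture medium was IMDM plus 12% FBS.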

In a further assay the target is T1, AKT1 E17K (Homo sapiens, UniProt P31749, E17K).
T1 construct: expressed in transfected cells; host or cells: HEK293
Put plainly: Live cell target engagement by NanoBRET competitive probe displacement, AKT1 E17K. The assay is classed as binding. The settings on record: transfected HEK293 cells, 2 h at 37° C., read-out: AKT1 E17K IC50: GeoMean IC50. A general note: BRET reads energy transfer from a luciferase to a nearby fluorophore.

The next assay has as its target T2, AKT2 (Homo sapiens, UniProt P31751).
T2 construct: expressed in transfected cells; host or cells: HEK293
Put plainly: Live cell target engagement by NanoBRET competitive probe displacement, AKT2. The assay is classed as binding. The settings on record: transfected HEK293 cells, 2 h at 37° C., read-out: AKT2 IC50: GeoMean IC50.

The target in another assay is T3, AKT1 WT (Homo sapiens, UniProt P31749).
T3 construct: expressed in transfected cells; host or cells: HEK293
Put plainly: Live cell target engagement by NanoBRET competitive probe displacement, AKT1 WT. The assay is classed as binding. The settings on record: transfected HEK293 cells, 2 h at 37° C., read-out: AKT1 WT IC50: GeoMean IC50.

T1 sequence (P31749 whole entry E17K): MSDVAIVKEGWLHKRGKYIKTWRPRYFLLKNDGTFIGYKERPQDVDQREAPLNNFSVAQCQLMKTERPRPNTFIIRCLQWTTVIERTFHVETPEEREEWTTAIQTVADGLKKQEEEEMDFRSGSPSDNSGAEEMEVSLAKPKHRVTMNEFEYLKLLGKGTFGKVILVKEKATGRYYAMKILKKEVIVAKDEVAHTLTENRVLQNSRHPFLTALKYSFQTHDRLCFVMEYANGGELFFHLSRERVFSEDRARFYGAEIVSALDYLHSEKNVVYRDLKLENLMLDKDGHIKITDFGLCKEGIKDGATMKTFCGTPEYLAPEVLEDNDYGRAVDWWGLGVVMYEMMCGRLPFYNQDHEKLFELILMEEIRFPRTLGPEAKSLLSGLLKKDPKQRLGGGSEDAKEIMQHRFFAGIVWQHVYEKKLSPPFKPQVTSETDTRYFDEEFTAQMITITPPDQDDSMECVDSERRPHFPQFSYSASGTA
T2 sequence (P31751 whole entry): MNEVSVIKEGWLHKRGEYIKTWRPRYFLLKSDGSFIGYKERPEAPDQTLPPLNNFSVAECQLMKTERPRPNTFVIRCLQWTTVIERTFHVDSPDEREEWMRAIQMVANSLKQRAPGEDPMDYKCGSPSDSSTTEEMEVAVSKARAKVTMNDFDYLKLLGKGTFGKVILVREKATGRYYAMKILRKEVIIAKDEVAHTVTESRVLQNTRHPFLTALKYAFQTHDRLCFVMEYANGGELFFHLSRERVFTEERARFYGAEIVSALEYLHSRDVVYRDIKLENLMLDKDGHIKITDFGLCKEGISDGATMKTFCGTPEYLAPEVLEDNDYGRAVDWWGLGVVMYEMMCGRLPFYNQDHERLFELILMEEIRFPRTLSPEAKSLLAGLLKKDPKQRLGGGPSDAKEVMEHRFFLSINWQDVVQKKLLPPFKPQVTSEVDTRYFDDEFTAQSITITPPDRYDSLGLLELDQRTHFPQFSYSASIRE
T3 sequence (P31749 whole entry): as the sequence (P31749 whole entry E17K) above, with K17E counted along it

As for `Nc1ncccc1-c1nc2ccc(-c3cc4n(n3)CCC4)nc2n1-c1ccc2c(c1)CC[C@@H]2NC(=O)c1cc(C=O)c(O)cc1F` [Example 247, N-[(1S)-5-[2-(2-aminopyridin-3-yl)-5-{4H,5H,6H-pyrrolo[1,2-b]pyrazol-2-yl}imidazo[4,5-b]pyridin-3-yl]-2,3-dihydro-1H-inden-1-yl]-2-fluoro-5-formyl-4-hydroxybenzamide], the IC50 in assay [1] is 10 to 100 nM; at AKT1 E17K it was 10 to 100 nM; at AKT2 it was 100 to 2000 nM; at AKT1 WT it was 10 to 100 nM.
As for `Nc1ncccc1-c1nc2ccc(-c3cnccn3)nc2n1-c1ccc2c(c1)CC[C@@H]2NC(=O)c1ccc(O)c(C=O)c1` [Example 29, N-[(1S)-5-[2-(2-aminopyridin-3-yl)-5-(pyrazin-2-yl)imidazo[4,5-b]pyridin-3-yl]-2,3-dihydro-1H-inden-1-yl]-3-formyl-4-hydroxybenzamide], the IC50 was 10 to 100 nM in assay [1], below 10 nM on AKT1 E17K, 100 to 2000 nM at AKT2 and 10 to 100 nM at AKT1 WT.
On to `Nc1ncccc1-c1nc2ccc(-n3cccn3)nc2n1-c1cc(F)c2c(c1)CC[C@@H]2NC(=O)c1ccc(O)c(C=O)c1` [Example 189, N-[(1S)-5-[2-(2-aminopyridin-3-yl)-5-(pyrazol-1-yl)imidazo[4,5-b]pyridin-3-yl]-7-fluoro-2,3-dihydro-1H-inden-1-yl]-3-formyl-4-hydroxybenzamide], for which the IC50 was at least 2000 nM in assay [1], 100 to 2000 nM at AKT1 E17K, at least 2000 nM on AKT2 and 100 to 2000 nM at AKT1 WT.
`Nc1ncccc1-c1nc2ccc(-n3cccn3)nc2n1-c1ccc2c(c1)CC[C@@H]2NC(=O)c1cc(C=O)c(O)c(F)c1Cl` [Example 110, N-[(1S)-5-[2-(2-aminopyridin-3-yl)-5-(pyrazol-1-yl)imidazo[4,5-b]pyridin-3-yl]-2,3-dihydro-1H-inden-1-yl]-2-chloro-3-fluoro-5-formyl-4-hydroxybenzamide]: the IC50 was 100 to 2000 nM in assay [1], 10 to 100 nM on AKT1 E17K, 100 to 2000 nM at AKT2 and 10 to 100 nM at AKT1 WT.
As to `Nc1ncccc1-c1nc2ccc(OC3CC3)nc2n1-c1ccc2c(c1)CC[C@@H]2NC(=O)c1ccc(O)c(C=O)c1` [Example 32, N-[(1S)-5-[2-(2-aminopyridin-3-yl)-5-cyclopropoxyimidazo[4,5-b]pyridin-3-yl]-2,3-dihydro-1H-inden-1-yl]-3-formyl-4-hydroxybenzamide], the IC50 was 100 to 2000 nM in assay [1], 10 to 100 nM at AKT1 E17K, at least 2000 nM on AKT2 and 100 to 2000 nM on AKT1 WT.
Consider `C#Cc1ccc(C(=O)N[C@H]2CCc3cc(-n4c(-c5cccnc5N)nc5ccc(-n6cccn6)nc54)ccc32)cc1C=O` [Example 155, N-[(1S)-5-[2-(2-aminopyridin-3-yl)-5-(pyrazol-1-yl)imidazo[4,5-b]pyridin-3-yl]-2,3-dihydro-1H-inden-1-yl]-4-ethynyl-3-formylbenzamide], for which the IC50 is at least 2000 nM in assay [1], 10 to 100 nM on AKT1 E17K, 10 to 100 nM on AKT2 and 10 to 100 nM at AKT1 WT.
On to `COc1ccc2nc(-c3cccnc3N)n(-c3ccc4c(c3)CC[C@@H]4NC(=O)c3ccc(O)c(C=O)c3)c2n1` [Example 46, (S)—N-(5-(2-(2-aminopyridin-3-yl)-5-methoxy-3H-imidazo[4,5-b]pyridin-3-yl)-2,3-dihydro-1H-inden-1-yl)-3-formyl-4-hydroxybenzamide], for which the IC50 in assay [1] is 100 to 2000 nM; on AKT1 E17K it was 100 to 2000 nM; at AKT2, at least 2000 nM; at AKT1 WT it was 100 to 2000 nM.
On to `Nc1ncccc1-c1nc2c(F)cc(-n3cccn3)nc2n1-c1ccc2c(c1)CC[C@@H]2NC(=O)c1ccc(O)c(C=O)c1` [Example 213, N-[(1S)-5-[2-(2-aminopyridin-3-yl)-7-fluoro-5-(pyrazol-1-yl)imidazo[4,5-b]pyridin-3-yl]-2,3-dihydro-1H-inden-1-yl]-3-formyl-4-hydroxybenzamide], for which the IC50 in assay [1] lay in the range of 100 to 2000 nM; on AKT1 E17K, 10 to 100 nM; at AKT2, 100 to 2000 nM; at AKT1 WT, 10 to 100 nM.
For the molecule `CC(=O)Nc1ccc(C(=O)N[C@H]2CCc3cc(-n4c(-c5cccnc5N)nc5ccc(N6CCOCC6)nc54)ccc32)cc1C=O` [Example 53, N-[(1S)-5-[2-(2-aminopyridin-3-yl)-5-(morpholin-4-yl)imidazo[4,5-b]pyridin-3-yl]-2,3-dihydro-1H-inden-1-yl]-4-acetamido-3-formylbenzamide], the IC50 in assay [1] is 100 to 2000 nM; on AKT1 E17K, below 10 nM; on AKT2, 100 to 2000 nM; on AKT1 WT, 10 to 100 nM.
For `Nc1ncccc1-c1nc2ccc(-n3cncn3)nc2n1-c1ccc2c(c1)CC[C@@H]2NC(=O)c1ccc(O)c(C=O)c1` [Example 97, N-[(1S)-5-[2-(2-aminopyridin-3-yl)-5-(1,2,4-triazol-1-yl)imidazo[4,5-b]pyridin-3-yl]-2,3-dihydro-1H-inden-1-yl]-3-formyl-4-hydroxybenzamide], the IC50 in assay [1] was in the range of 100 to 2000 nM; at AKT1 E17K, 10 to 100 nM; at AKT2 it was 100 to 2000 nM; at AKT1 WT, 100 to 2000 nM.
`Nc1ncccc1-c1nc2ccc(-c3ccccc3)nc2n1-c1ccc2c(c1)CC[C@@H]2NC(=O)c1ccc(NC(=O)N2CCOCC2)c(C=O)c1` [Example 68, N-(4-{[(1S)-5-[2-(2-aminopyridin-3-yl)-5-phenylimidazo[4,5-b]pyridin-3-yl]-2,3-dihydro-1H-inden-1-yl]carbamoyl}-2-formylphenyl)morpholine-4-carboxamide]: the IC50 is 100 to 2000 nM in assay [1], 10 to 100 nM at AKT1 E17K, 100 to 2000 nM at AKT2 and 10 to 100 nM at AKT1 WT.
As to `Nc1ncccc1-c1nc2ccc(-n3cccn3)nc2n1-c1ccc2c(c1)CC[C@@H]2NC(=O)c1cc(Cl)c(O)c(C=O)c1` [Example 93, N-[(1S)-5-[2-(2-aminopyridin-3-yl)-5-(pyrazol-1-yl)imidazo[4,5-b]pyridin-3-yl]-2,3-dihydro-1H-inden-1-yl]-3-chloro-5-formyl-4-hydroxybenzamide], the IC50 in assay [1] fell in the range of 100 to 2000 nM; on AKT1 E17K, 10 to 100 nM; at AKT2, 100 to 2000 nM; on AKT1 WT, 10 to 100 nM.
Take `Nc1ncccc1-c1nc2ccc(-c3ccccc3)nc2n1-c1ccc2c(c1)CC[C@@H]2NC(=O)c1ccc(C=O)c(O)c1` [Example 30, N-[(1S)-5-[2-(2-aminopyridin-3-yl)-5-phenylimidazo[4,5-b]pyridin-3-yl]-2,3-dihydro-1H-inden-1-yl]-4-formyl-3-hydroxybenzamide]: the IC50 is at least 2000 nM in assay [1], 100 to 2000 nM at AKT1 E17K, 100 to 2000 nM on AKT2 and 100 to 2000 nM on AKT1 WT.
Turning to `[N-]=[N+]=Nc1cc(O)c(C=O)cc1C(=O)N[C@H]1CCc2cc(-n3c(-c4cccnc4N)nc4ccc(-n5cccn5)nc43)ccc21` [Example 235, N-[(1S)-5-[2-(2-aminopyridin-3-yl)-5-(pyrazol-1-yl)imidazo[4,5-b]pyridin-3-yl]-2,3-dihydro-1H-inden-1-yl]-2-azido-5-formyl-4-hydroxybenzamide], the IC50 in assay [1] lay in the range of 100 to 2000 nM; at AKT1 E17K, 10 to 100 nM; at AKT2, 100 to 2000 nM; on AKT1 WT, 100 to 2000 nM.
As to `Cc1cc(-n2cccn2)nc2c1nc(-c1cccnc1N)n2-c1ccc2c(c1)CC[C@@H]2n1cnc2cc(O)c(C=O)cc2c1=O` [Example 220, (S)-3-(5-(2-(2-aminopyridin-3-yl)-7-methyl-5-(1H-pyrazol-1-yl)-3H-imidazo[4,5-b]pyridin-3-yl)-2,3-dihydro-1H-inden-1-yl)-7-hydroxy-4-oxo-3,4-dihydroquinazoline-6-carbaldehyde], the IC50 (in assay [1]; on AKT1 E17K; on AKT2; on AKT1 WT) was 100 to 2000 nM throughout.
`Nc1ncccc1-c1nc2ccc(-n3cccn3)nc2n1-c1ccc2c(c1)CC[C@@H]2NC(=O)c1cc(C=O)c(O)c(OC(F)F)c1` [Example 168, (S)—N-(5-(2-(2-aminopyridin-3-yl)-5-(1H-pyrazol-1-yl)-3H-imidazo[4,5-b]pyridin-3-yl)-2,3-dihydro-1H-inden-1-yl)-3-(difluoromethoxy)-5-formyl-4-hydroxybenzamide]: the IC50 in assay [1] is 100 to 2000 nM; on AKT1 E17K, 10 to 100 nM; on AKT2, 100 to 2000 nM; at AKT1 WT, 10 to 100 nM.
`Nc1ncccc1-c1nc2ccc(-c3ccccc3)nc2n1-c1ccc2c(c1)CC[C@@H]2NC(=O)c1ccc(NC(=O)C(F)F)c(C=O)c1` [Example 52, N-[(1S)-5-[2-(2-aminopyridin-3-yl)-5-phenylimidazo[4,5-b]pyridin-3-yl]-2,3-dihydro-1H-inden-1-yl]-4-(2,2-difluoroacetamido)-3-formylbenzamide]: the IC50 in assay [1] was 10 to 100 nM; at AKT1 E17K it was below 10 nM; on AKT2, 10 to 100 nM; at AKT1 WT, below 10 nM.
As to `Nc1ncccc1-c1nc2ccc(-c3cnccn3)nc2n1-c1ccc2c(c1)CC[C@@H]2NC(=O)c1cc(C=O)c(O)c(F)c1F` [Example 103, N-[(1S)-5-[2-(2-aminopyridin-3-yl)-5-(pyrazin-2-yl)imidazo[4,5-b]pyridin-3-yl]-2,3-dihydro-1H-inden-1-yl]-2,3-difluoro-5-formyl-4-hydroxybenzamide], the IC50 in assay [1] was 10 to 100 nM; at AKT1 E17K, 10 to 100 nM; on AKT2, 100 to 2000 nM; at AKT1 WT it was 10 to 100 nM.
